± gives the standard deviation of the averaged measurements.
Test system: HepaRG
Assay: LDH release cytotoxicity, % of total lysis control; higher = more cytotoxic
Details: 48 h
Procedure, shortened: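 Duplicate wells of single-lot HepaRG cells, grown on collagen I-coated 96-well plates, received eight-point half-log series of test chemicals with 100 µM as the top concentration. Exposure lasted 48 h in serum-free induction medium with 0.5% DMSO, while total lysis wells received 0.1% Triton X. Resorufin fluorescence (CytoTox-ONE, Tecan Safire) was used to quantify LDH leaked into 50 µL of spent medium. Values for percent cytotoxicity were normalized to on-plate vehicle and total lysis controls and averaged across the duplicates.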

Structure (SMILES) | LDH release cytotoxicity (0.03162 µM) | LDH release cytotoxicity (0.1 µM) | LDH release cytotoxicity (0.3162278 µM) | LDH release cytotoxicity (1 µM) | LDH release cytotoxicity (3.16228 µM) | LDH release cytotoxicity (10 µM) | LDH release cytotoxicity (31.6228 µM) | LDH release cytotoxicity (100 µM) | other results
Oc1ccc2c(c1)OCC(N1CCC(O)(c3ccc(F)cc3)CC1)C2O (configuration not stated) |  |  |  |  |  |  |  |  | LDH release cytotoxicity (0.01581 µM): -1 ± 0.72%; LDH release cytotoxicity (0.05 µM): 0.886 ± 1.8%; LDH release cytotoxicity (0.1581139 µM): 0.0464 ± 0.5%; LDH release cytotoxicity (0.5 µM): 0.111 ± 0.36%; LDH release cytotoxicity (1.5811388 µM): 0.298 ± 0.66%; LDH release cytotoxicity (5 µM): 0.5713 ± 0.0015%; LDH release cytotoxicity (15.8114 µM): 1.05 ± 0.36%; LDH release cytotoxicity (50 µM): 0.322 ± 0.4%
CCN(CC)C(=O)SCc1ccc(Cl)cc1 [Thiobencarb] | -1.69 ± 0.22% | -1.48 ± 0.59% | -1.6 ± 2.2% | -2.11 ± 1.5% | -1.17 ± 1% | -1.78 ± 1.8% | -1.01 ± 1.6% | 2.18 ± 1.2% | 
CC(C)OC(=O)C(C)(C)Oc1ccc(C(=O)c2ccc(Cl)cc2)cc1 [Fenofibrate] | -0.938 ± 0.65% | -0.368 ± 1.6% | -0.7726 ± 0.0031% | -1.53 ± 0.59% | -0.41 ± 0.067% | -0.735 ± 0.21% | -0.291 ± 0.23% | 0.118 ± 0.2% | 
Cc1nc(-c2ccccn2)ncc1C(=O)Nn1cc(C)c2cc(F)ccc21 |  |  |  |  |  |  |  |  | LDH release cytotoxicity (0.0295673 µM): -0.89 ± 0.73%; LDH release cytotoxicity (0.0935 µM): -1.26 ± 0.34%; LDH release cytotoxicity (0.295673 µM): -0.0753 ± 0.68%; LDH release cytotoxicity (0.935 µM): -1.71 ± 0.6%; LDH release cytotoxicity (2.95673 µM): -2.8 ± 0.042%; LDH release cytotoxicity (9.35 µM): -2.48 ± 0.043%; LDH release cytotoxicity (29.5673 µM): -2.73 ± 0.47%; LDH release cytotoxicity (93.5 µM): -1.5 ± 0.84%
O=C(O)Cc1cc(I)c(Oc2ccc(O)c(I)c2)c(I)c1 [Tiratricol] | 1.48 ± 0.13% | 1.09 ± 1.1% | 1.5 ± 1.1% | 0.13 ± 0.074% | 0.965 ± 0.74% | 0.402 ± 0.0063% | -0.312 ± 0.0079% | 21.5 ± 18% | 
Cc1c(F)c(F)c(COC(=O)C2C(C=C(Cl)C(F)(F)F)C2(C)C)c(F)c1F (configuration not stated) [Tefluthrin] | -0.665 ± 0.058% | -0.785 ± 0.14% | -1.49 ± 0.56% | -1.6 ± 0.5% | -1.72 ± 0.74% | -0.97 ± 0.31% | -0.478 ± 0.69% | -0.883 ± 1% | 
CC1(C)CON(Cc2ccccc2Cl)C1=O [Clomazone] | -5.32 ± 1.1% | -6.75 ± 0.27% | -6.22 ± 0.37% | -6.24 ± 0.67% | -6.33 ± 1.5% | -5.74 ± 0.57% | -5.91 ± 0.59% | -4.53 ± 0.15% | 
CC(C)(C)OOC(C)(C)C [Di-tert-butyl peroxide] |  |  |  |  |  |  |  |  | LDH release cytotoxicity (0.01581 µM): -1.21 ± 0.27%; LDH release cytotoxicity (0.05 µM): -2.14 ± 0.51%; LDH release cytotoxicity (0.1581139 µM): -1.99 ± 0.23%; LDH release cytotoxicity (0.5 µM): -2.18 ± 0.81%; LDH release cytotoxicity (1.5811388 µM): -1.46 ± 0.93%; LDH release cytotoxicity (5 µM): -1.68 ± 1.1%; LDH release cytotoxicity (15.8114 µM): -1.75 ± 0.98%; LDH release cytotoxicity (50 µM): -1.55 ± 0.28%
CC(C)(C)c1ccccc1 [tert-Butylbenzene] | -3.19 ± 0.23% | -2.41 ± 1.1% | -1.88 ± 0.86% | -2.09 ± 0.96% | -1.34 ± 0.44% | -1.35 ± 0.2% | -0.245 ± 1.8% | 0.779 ± 2.1% | 
Cc1ccn2nc(S(=O)(=O)Nc3c(F)cccc3F)nc2n1 [Flumetsulam] | -2 ± 0.6% | -0.7 ± 1.5% | -1.43 ± 3% | -1.43 ± 1.5% | -1.84 ± 0.62% | 0.538 ± 0.94% | 0.194 ± 2% | 1.86 ± 1.8% | 
CCCCC(CC)COC(=O)c1ccc(C(=O)OCC(CC)CCCC)c(C(=O)OCC(CC)CCCC)c1 (configuration not stated) [Tris(2-ethylhexyl) trimellitate] | -1.9 ± 0.9% | -0.779 ± 0.11% | -1.6 ± 0.82% | -0.598 ± 1.5% | -1.18 ± 0.4% | -0.738 ± 0.28% | -0.634 ± 0.44% | 5.97 ± 0.36% | 
OCC1OC(OC2(CO)OC(CO)C(O)C2O)C(O)C(O)C1O (configuration not stated) [Sucrose] | -1.56 ± 0.45% | -2.84 ± 0.18% | -1.3 ± 0.074% | -1.84 ± 0.36% | -2 ± 1.1% | -0.48 ± 1.6% | -0.542 ± 1.9% | 1.54 ± 1.6% | 
CCC(=O)Nc1ccc(Cl)c(Cl)c1 [Propanil] | -0.963 ± 0.057% | -0.318 ± 1.1% | -0.815 ± 0.19% | -1.73 ± 0.56% | -0.844 ± 0.53% | 0.163 ± 0.67% | 0.666 ± 0.14% | 4.33 ± 0.28% | 
O=C(O)c1cccc(C(=O)O)c1 [1,3-Benzenedicarboxylic acid] | -2.12 ± 0.44% | -1.69 ± 0.34% | -1.63 ± 0.21% | -2.28 ± 0.37% | -2.24 ± 0.28% | -1.69 ± 0.35% | 0.0627 ± 0.62% | 4.89 ± 0.58% | 
CCCCCCCCCCCCc1ccccc1 [Dodecylbenzene] | -2.1 ± 0.14% | -1.71 ± 0.15% | -1.86 ± 0.75% | -2.59 ± 0.8% | -2.08 ± 0.19% | -0.672 ± 0.39% | -1.17 ± 0.31% | 1.25 ± 1.2% | 
Cc1ccccc1N [2-Methylaniline] | -1.2 ± 0.49% | -0.736 ± 0.52% | -0.698 ± 0.12% | -0.759 ± 0.47% | -1.37 ± 0.23% | -0.264 ± 0.12% | -0.213 ± 0.19% | 0.285 ± 0.61% | 
OC1CCCCC1 [Cyclohexanol] | -1.14 ± 0.82% | -1.56 ± 0.45% | -2.24 ± 0.84% | -1.92 ± 0.44% | -1.56 ± 0.67% | -0.208 ± 0.47% | -0.773 ± 0.11% | -0.073 ± 0.72% | 
CCN1CCC2(CC1)COc1cc3c(cc12)N(C(=O)c1ccc(-c2ccc(-c4nnc(C)o4)cc2C)cc1)CC3 | -2.84 ± 1.3% | -2.94 ± 0.81% | -1.93 ± 1.5% | -3.08 ± 0.76% | -3.21 ± 1.3% | -2.54 ± 0.92% | -2.8 ± 0.8% | -0.687 ± 1.4% | 
Oc1ccc2ccccc2c1 [2-Naphthalenol] | -0.471 ± 0.51% | -0.55 ± 0.25% | -0.787 ± 0.15% | -0.57 ± 0.2% | -0.679 ± 0.39% | -0.106 ± 0.093% | 0.851 ± 0.3% | 13.8 ± 0.73% | 
